In patent US10919905B2, “Polymorphism for irinotecan free base” (ScinoPharm Taiwan, Ltd., priority 2019, dated 2021):

Test: variable humidity x-ray powder diffraction (VH-XRPD), humidity effect on XRPD pattern
Format: physicochemical
Conditions: FIG. 7
Description: X-ray Powder Diffraction patterns were collected on a Bruker AXS D8 diffractometer using Cu Kα1 radiation (40 kV, 40 mA), θ-2θ goniometer, and divergence of 10 mm slits, a Ge monochromator and LynxEye detector. The representative PXRD pattern was collected under ambient condition.
Irinotecan free base (119 g) and dichloromethane (1600 mL, 13.5 vol) were added to a 3 L flask at room temperature (20-30° C.) to obtain a first suspension mixture. Water (120 mL, 1 vol) and 5% sodium bicarbonate (480 mL, 4 vol) were added to the first mixture at room temperature. The suspension was filtered, and then the phases were allowed to separate, and an organic layer was saved. Water (600 mL, 5 vol) was added, and the phases were allowed to separate, and the organic layer was saved. The organic layer was concentrated to about 430 mL (3.6 vol). Ethyl acetate (1440 mL, 12 vol) was added to the concentrated organic layer at 25-35° C. to obtain a second mixture. The second mixture was concentrated to about 1665 mL (14 vol) then cooled to 15-25° C. to obtain a slurry mixture. The slurry mixture was filtered, and a wet cake was obtained and dried under the nitrogen to afford irinotecan free base form S3 (98.04 g). The Form S3 was studied by using variable humidity x-ray powder diffraction (VH-XRPD) to investigate the humidity effect on XRPD pattern (FIG. 7). […] The changes in diffraction peaks are reversible with the humidity being changed.

humidity effect on XRPD pattern (change in diffraction peaks) (sample exposed at higher than 60% RH): the diffraction peaks changed
reversibility of changes in diffraction peaks (with the humidity being changed): reversible
Compound: CCc1c2c(nc3ccc(OC(=O)N4CCC(N5CCCCC5)CC4)cc13)-c1cc3c(c(=O)n1C2)COC(=O)[C@]3(O)CC [Form S3, [1,4′-bipiperidine]-1′-carboxylic acid, (4S)-4,11-diethyl-3,4,12,14-tetrahydro-4-hydroxy-3,14-dioxo-1H-pyrano[3′,4′:6,7]indolizino[1,2-b]quinolin-9-yl ester]
humidity effect on XRPD pattern (change in diffraction peaks) (sample exposed at 5-40% RH): no significant change in diffraction peaks was observed
